In US20260125374A1, “PI3K-ALPHA INHIBITORS AND METHODS OF MAKING AND USING THE SAME” (Relay Therapeutics, Inc., priority 2021, published 2026):
≈ marks a conversion by molar mass, not a printed value.

Columns and labels:
Format in all cases: physicochemical
[1] = Suspension stability at 25° C.; conditions: for Purity / Solubility / pH / Chiral purity (solids) / Solubility (μg/mL) / Chiral purity, liquid / Chiral purity, solid: 25° C.; for Solubility (μg/mL): LOQ: 0.25 μg/mL
Description: Suspension stability: Suspension stability of I-1 Form A and the 2 salt candidates was investigated in pure water, 0.5% (w/w) Tween 80 aqueous solution and 0.5% (w/w) MC (400 cP)+2% (w/w) Vitamin E TPGS aqueous solution at 25° C. for 2 h and 24 h. Target concentration was 2 mg/mL.
To confirm whether racemization occurs for the 2 salts in 0.5% (w/w) MC (400 cP)+2% (w/w) Vitamin E TPGS aqueous solution, the suspension stability in this vehicle was repeated at target concentration of 10 mg/mL. […] The hygroscopicity of these salts were further investigated.
Accurate 10 mg of I-1 Form A, 12.83 mg of I-3 Form A, 11.58 mg of I-4 Form A was weighed into a 8 mL glass vial, respectively. 5 mL of suspension vehicle was added, respectively. The salt amount used is equivalent to 10 mg anhydrous free form. These suspensions were stirred at 25° C. with 400 rpm. These suspensions were taken out at 2 hours and 24 hours, then centrifuged at 14,000 rpm for 5 min. The supernatants were analyzed by HPLC and pH meter. Solids obtained (wet cakes) were characterized by XRPD and HPLC to determine the chiral purity.
Accurate […] of I-3 Form A, 46.3 mg of I-4 Form A was weighed into a 8 mL glass vial, respectively. 4 mL of solubility medium was added, respectively. The salt amount used is equivalent to 40 mg anhydrous free form. 4 mL of the aqueous vehicle (0.5% (w/w) MC (400 cP) and 2% (w/w) Vitamin E TPGS in water) was added, respectively. These suspensions were stirred at 25° C. with 400 rpm. These suspensions were taken out at 2 hours and 24 hours, then centrifuged at 14,000 rpm for 5 min. The supernatants were analyzed by HPLC for the solubility and chiral purity and analyzed by pH meter. Solids obtained (wet cakes) were characterized by XRPD and HPLC for chiral purity.

[2] = Bulk stability (1 week); conditions: listed as I-4 Form A; for Bulk (HPLC) chiral purity / Bulk (HPLC) purity / Bulk (XRPD): Solid state
Description: Bulk stability of I-1 Form A and the 2 salt candidates was investigated at 25° C./92% RH in an open container, at 40° C./75% RH in an open container and at 60° C. in a tight container over 1 week. […] All the 3 salts show no obvious racemization based on chiral purity results.
I-1 Form A and the 2 salts were placed at 25° C./92% RH in an open container, at 40° C./75% RH in an open container and at 60° C. in a closed container for I week. Samples after I week were characterized by XRPD and HPLC and inspected for color change.

[3] = Salt screening (XRPD, chiral purity of hits)
Summary of the method: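 About 50 mg of I-1 Form A is stirred with 1.0 equivalent of counter ion in MeOH, acetone or IPAc at 50 °C for 2 h, then at 25 °C for at least 12 h. The screen covers 23 counter ions/coformers in about 70 experiments, using slurry, slow evaporation or anti-solvent addition. Solids are centrifuged off and analysed by XRPD.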

[4] = 2 mg/mL, 0.5%(w/w) MC(400 cP) and 2%(w/w) Vitamin E TPGS in water, 2 h, listed as I-4 Form A
[5] = 2 mg/mL, 0.5%(w/w) MC(400 cP) and 2%(w/w) Vitamin E TPGS in water, 24 h, listed as I-4 Form A
[6] = 2 mg/mL, 0.5%(w/w) Tween 80 in water, 2 h, listed as I-4 Form A
[7] = 2 mg/mL, 0.5%(w/w) Tween 80 in water, 24 h, listed as I-4 Form A
[8] = 2 mg/mL, Pure water, 2 h, listed as I-4 Form A
[9] = 2 mg/mL, Pure water, 24 h, listed as I-4 Form A
[10] = 10 mg/mL, 0.5(w/w) MC(400 cP) and 2%(w/w) Vitamin E TPGS in water, 2 h, listed as I-4 Form A
[11] = 10 mg/mL, 0.5(w/w) MC(400 cP) and 2%(w/w) Vitamin E TPGS in water, 24 h, listed as I-4 Form A
[12] = 25° C./92% RH, open container, 1 week
[13] = 40° C./75% RH, open container, 1 week
[14] = 60° C., tight container, 1 week
[15] = crystalline hits of salt screening, listed as I-4 Form A

N#Cc1c(-c2cc(NC(=O)c3cc(F)cc(C(F)(F)F)c3)c3c(c2)C(=O)N[C@H]3c2cc(F)ccc2Cl)ccc2ncnn12 [Compound I-4]
physical form of residual solids after the test (XRPD) ([1]; 0.5% MC (400 cP)+2% Vitamin E TPGS, target 10 mg/mL): converted to amorphous form | Purity [1, 4]: 99.2% | Solubility [1, 4]: 1210.7 µg/mL (≈ 1.99 mM) | pH [1, 4]: 2.72 | Purity [1, 5]: 99.6% | Solubility [1, 5]: 2018.8 µg/mL (≈ 3.32 mM) | pH [1, 5]: 2.61 | Chiral purity (solids) [1, 6]: 99.7% | Purity [1, 6]: 99.5% | Solubility [1, 6]: 342.6 µg/mL (≈ 0.563 mM) | pH [1, 6]: 2.78 | Chiral purity (solids) [1, 7]: 95.8% | Purity [1, 7]: 99.6% | pH [1, 7]: 2.63 | Solubility (μg/mL) ([1]; 2 mg/mL, Pure water, 2 h): <LOQ | Chiral purity (solids) [1, 8]: 99.7% | Purity [1, 8]: 99.5% | pH [1, 8]: 2.81 | Solubility (μg/mL) ([1]; 2 mg/mL, Pure water, 24 h): <LOQ | Chiral purity (solids) [1, 9]: 99.7% | Purity [1, 9]: 99.4% | pH [1, 9]: 2.61 | Purity ([1]; 10 mg/mL, 0.5(w/w) MC(400 cP) and 2%(w/w) Vitamin E TPGS in water, 2 h): 99.7% | Chiral purity, liquid [1, 10]: 100%; | Chiral purity, solid [1, 10]: 99.8% | pH [1, 10]: 1.89 | Chiral purity, liquid [1, 11]: 99.8%; | Chiral purity, solid [1, 11]: 99.7% | Purity [1, 11]: 99.6% | pH [1, 11]: 1.86 | solubility at 2 h ([1]; 25 °C, aqueous with cosolvent or surfactant or cyclodextrin, thermodynamic from solid, 10 mg/mL, 0.5(w/w) MC(400 cP) and 2%(w/w) Vitamin E TPGS in water, 2 h): 3950 µg/mL (≈ 6.48 mM) | solubility at 24 h ([1]; 25 °C, aqueous with cosolvent or surfactant or cyclodextrin, thermodynamic from solid, 10 mg/mL, 0.5(w/w) MC(400 cP) and 2%(w/w) Vitamin E TPGS in water, 24 h): 3810 µg/mL (≈ 6.26 mM) | Initial chiral purity ([1]; before suspension, listed as I-4 Form A): Initial chiral purity: 99.5% | solubility at 24 h ([1]; suspension in 0.5% (w/w) Tween 80 in water, 25 °C, aqueous with cosolvent or surfactant or cyclodextrin, thermodynamic from solid, 2 mg/mL, 0.5%(w/w) Tween 80 in water, 24 h): 16.3 µg/mL (≈ 0.0268 mM) | bulk stability (chemical and physical) ([2]; 25° C./92% RH open, 40° C./75% RH open, 60° C. tight container, 1 week): chemically stable but physically unstable at 25° C./92% RH and 40° C./75% RH | Bulk (HPLC) chiral purity [2, 12]: 98.3% | Bulk (HPLC) purity [2, 12]: 99.4%/ | Bulk (XRPD) [2, 12]: Form changed | Bulk (HPLC) chiral purity [2, 13]: 99.1% | Bulk (HPLC) purity [2, 13]: 99.0%/ | Bulk (XRPD) [2, 13]: Form changed | Bulk (HPLC) chiral purity [2, 14]: 99.2% | Bulk (HPLC) purity [2, 14]: 99.5%/ | Chiral purity (initial) ([2]; before storage): 99.5% | Initial purity by HPLC ([2]; before storage): 99.6% | Salt screening result (anti-solvent) ([3]; 1.0 equiv. methanesulfonic acid, Acetone/MTBE): + (I-4 Form A) (Salt hits) | Chiral purity of salt screening solid ([3]; anti-solvent, 1.0 equiv. methanesulfonic acid, Acetone/MTBE): Chiral purity: 98.3% | Chiral purity (by HPLC) [3, 15]: 98.3% | Crystallinity (By XRPD) [3, 15]: Low
